Experimental data from patent publication US20250042894A1, “PROTEIN TYROSINE PHOSPHATASE INHIBITORS AND METHODS OF USE THEREOF” (Calico Life Sciences LLC, priority 2021, published 2025).
Where two headings read alike, the source gives them in different places.

What was measured:
[1] = biological target: T1, His tagged PTPN2 (TC45) protein (Homo sapiens, UniProt P17706); experiment: Mobility Shift Assay (MSA) for PTPN2 inhibitors; type: biochemical; conditions: for Thiochromane x-fold>potency biochemical: PTPN2 MSA IC50 of chromane comparator over thiochromane
T1 construct: His; made in house
T1 sequence (P17706 1-387 isoform P17706-2): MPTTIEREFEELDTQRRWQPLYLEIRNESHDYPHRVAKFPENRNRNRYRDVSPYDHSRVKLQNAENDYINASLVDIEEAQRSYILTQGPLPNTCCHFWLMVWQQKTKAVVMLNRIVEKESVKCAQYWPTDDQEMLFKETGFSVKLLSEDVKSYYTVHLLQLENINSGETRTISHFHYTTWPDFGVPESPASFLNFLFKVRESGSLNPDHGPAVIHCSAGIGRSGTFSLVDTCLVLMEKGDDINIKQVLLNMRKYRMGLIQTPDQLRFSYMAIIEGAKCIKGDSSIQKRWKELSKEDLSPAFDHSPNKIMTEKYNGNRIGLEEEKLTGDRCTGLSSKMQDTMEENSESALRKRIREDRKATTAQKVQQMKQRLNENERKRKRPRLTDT
Experimental: Example 43: Mobility Shift Assay (MSA) Used to Determine Potency of PTPN2 Inhibitors
Compound activity was determined using in house His tagged PTPN2 (TC45) protein (SEQ ID NO: 1) in an in vitro enzymatic reaction. The enzymatic assay used to determine activity was a mobility shift assay using a LabChip EZ Reader by Caliper Life Sciences. The enzymatic reaction was carried out in assay buffer (50 mM HEPES pH 7.5, 1 mM EGTA, 10 mM EDTA, 0.01% Tween® 20, and 2 mM DTT). The compounds were dispensed on a white 384 well ProxiPlate™ (PerkinElmer Catalog #6008289) plate using the Labcyte Echo at varying concentrations (12 point, 1:3 dilution). The enzyme (at 0.5 nM) was incubated with compound for 10 minutes at room temperature. Thereafter, the substrate (phosphorylated insulin receptor probe sequence: ((OG488)-(NH—CH2—CH2—O—CH2—CH2—O—CH2—CO)-T-R-D-I—(PY)-E-T-D-Y—Y—R—K—K—NH2) (SEQ ID NO: 2) was added at 2 μM to the plates and incubated for another 10 minutes at room temperature. Finally, a quench solution (water and 4-bromo-3-(2-oxo-2-propoxyethoxy)-5-(3-{[1-(phenylmethanesulfonyl)piperidin-4-yl]amino}phenyl)thiophene-2-carboxylic acid) was added to the plates, which were then run on the EZ Reader (excitation 488 nm, emission 530 nm) to measure % conversion (the amount of phosphorylated substrate which was de-phosphorylated by PTPN2). […] The % inhibition was then used to calculate the IC50 values.

[2] = biological target: T2, His tagged full-length PTPN1 protein (Homo sapiens, UniProt P18031); experiment: Mobility Shift Assay (MSA) for PTPN1 inhibitors; type: biochemical; conditions: enzyme 0.5 nM, substrate 2 μM, 10 minutes preincubation at room temperature
T2 construct: His; made in house
T2 sequence (P18031 1-435): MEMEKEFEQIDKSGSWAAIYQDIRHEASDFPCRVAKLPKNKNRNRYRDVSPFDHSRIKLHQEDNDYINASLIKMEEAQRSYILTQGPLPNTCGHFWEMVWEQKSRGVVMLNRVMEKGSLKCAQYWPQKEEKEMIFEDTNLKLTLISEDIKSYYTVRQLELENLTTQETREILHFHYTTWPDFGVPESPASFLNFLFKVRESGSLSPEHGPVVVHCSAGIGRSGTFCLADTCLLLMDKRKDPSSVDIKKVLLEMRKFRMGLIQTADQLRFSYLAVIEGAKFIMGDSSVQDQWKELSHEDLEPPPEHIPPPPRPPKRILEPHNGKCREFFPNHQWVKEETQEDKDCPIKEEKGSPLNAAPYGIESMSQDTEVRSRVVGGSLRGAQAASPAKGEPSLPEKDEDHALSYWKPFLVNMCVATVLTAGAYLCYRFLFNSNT
Experimental: Example 44: Mobility Shift Assay (MSA) Used to Determine Potency of PTPN1 Inhibitors
Compound activity was determined using in house His tagged full-length PTPN1 protein (SEQ ID NO: 3) in an in vitro enzymatic reaction. The enzymatic assay used to determine activity is a mobility shift assay using a LabChip EZ Reader by Caliper Life Sciences. The enzymatic reaction was carried out in assay buffer (50 mM HEPES pH 7.5, 1 mM EGTA, 10 mM EDTA, 0.010% Tween® 20, and 2 mM DTT). The compounds were dispensed on a white 384 well ProxiPlate™ (PerkinElmer Cat #6008289) plate using a Labcyte Echo® liquid handler at varying concentrations (12 point, 1:3 dilution). The enzyme (at 0.5 nM) was incubated with compound for 10 minutes at room temperature. Thereafter, the substrate (phosphorylated insulin receptor probe sequence: ((OG488)-(NH—CH2—CH2—O—CH2—CH2—O—CH2—CO)-T-R-D-I—(PY)-E-T-D-Y—Y—R—K—K—NH2) (SEQ ID NO: 2) was added at 2 μM to the plates and incubated for another 10 minutes at room temperature. Finally, a quench solution (water and 4-bromo-3-(2-oxo-2-propoxyethoxy)-5-(3-{[1-(phenylmethanesulfonyl)piperidin-4-yl]amino}phenyl)thiophene-2-carboxylic acid) was added to the plates, which were then run on the EZ Reader (excitation 488 nm, emission 530 nm) to measure % conversion (the amount of phosphorylated substrate which was de-phosphorylated by PTPN1). […] The % inhibition was then used to calculate the IC50 values.

[3] = test system: IFNγ-induced STAT1 phosphorylation (pSTAT1) in B16F10 cells; experiment: B16F10 Phospho-STAT1 HTRF proximal pharmacodynamic (PD) assay; type: cell-based, murine; conditions: for EC50: B16-F10
Experimental: Example 45: B16F10 (Murine Melanoma Cells) Phospho-STAT1 HTRF Proximal Pharmacodynamic (PD) Assay
B16F10 cells were grown and maintained in high glucose DMEM (Gibco, Catalog #11965-092, Dun Laoghaire Co Dublin) supplemented with 10% fetal bovine serum (Gibco, Catalog #10082-139, Dun Laoghaire Co Dublin). The cells were pelleted and resuspended in high glucose DMEM without phenol red (Gibco, Catalog #11054-020, Dun Laoghaire Co Dublin), supplemented with 10% fetal bovine serum and plated in a 384 well Corning plate (product #3765, Corning, NY) at 11,000 cells per well in a volume of 20 μL. The cells were dosed with the compounds of interest using an Echo Liquid Handler (Beckman Coulter, Brea, CA) at 50 μM top dose with 3-fold dilutions down to 0.002679 μM for a 10-point dose response. The plate was incubated for 3 hours at 37° C. and subsequently treated with recombinant mouse IFNγ (R&D Systems, Catalog #485-MI, Minneapolis, MN; 100 nM final concentration) for 10 minutes at 37° C. to induce STAT1 phosphorylation followed by 3.3 μM staurosporine treatment for 1 hour at 37° C. to terminate phosphorylation. Media was then aspirated and 20 μL of 1× lysis buffer/blocking reagent (Cisbio Phospho-STAT1 kit, part #63ADK026PEH, Bedford, MA) was added. The plate was placed on a plate shaker for 30 minutes at room temperature, sealed, and stored at −80° C. until needed. To thaw, the plate was placed on shaker at room temperature until completely thawed while the antibody master mix was made (1:40 Phospho-STAT1 Eu Cryptate antibody, 1:40 Phospho-STAT1 d2 antibody, with the detection buffer; Cisbio Phospho-STAT1 kit, part #63ADK026PEH, Bedford, MA). The antibody master mix was then dispensed at 4 μL per well into a 384 ProxiPlate Plus (PerkinElmer, part #6008289, Waltham, MA) and 16 μL of lysate was added from the Corning plate to the Proxiplate using a VIAFLO 384 (INTEGRA). The plate was incubated for 3 hours at room temperature and read on an EnVision® (Perkin Elmer) plate reader with laser excitation at 335 nm and emission at 665 nm. Dotmatics Studies (Bishop's Stortford, UK) was utilized to generate all dose-response curves and calculate EC50s and are shown in Table 2.

[4] = enzyme 0.5 nM, substrate 2 μM, 10 minutes preincubation at room temperature
[5] = Table 2, 3 hours compound, then mouse IFNγ 100 nM 10 minutes, top dose 50 μM, read-out: B16F10 IFNγ Induced pSTAT1 EC50
[6] = Mus musculus, Table 3, B16F10 cells, IFNγ-induced, thiochromanes (X = S) and chromane comparators (X = O), read-out: pSTAT1 EC50
[7] = Table 3, thiochromanes (X = S) and chromane comparators (X = O)

Row | SMILES | IC50 [1, 4] [nM] | IC50 [2] [nM] | EC50 [3, 6] [nM] | other results
1 | O=C1CN(c2c(O)cc3c(c2F)C[C@H](NCCCn2cccn2)CS3)S(=O)(=O)N1 [Compound 131, 5-[(3S)-5-fluoro-7-hydroxy-3-{[3-(1H-pyrazol-1-yl)propyl]amino}-3,4-dihydro-2H-1-benzothiopyran-6-yl]-1λ^6,2,5-thiadiazolidine-1,1,3-trione] | 10 to 100 | > 100 | – | EC50 [3, 5]: > 50000 nM
2 | O=C1CN(c2c(O)cc3c(c2F)CC(NCCCc2ccccc2)CO3)S(=O)(=O)N1 (stereo not shown) [Compound C-8, reference compound] | – | – | > 50000 | –
3 | CCCCN[C@@H]1CSc2cc(O)c(N3CC(=O)NS3(=O)=O)c(F)c2C1 [Compound 112, 5-[(3S)-3-(butylamino)-5-fluoro-7-hydroxy-3,4-dihydro-2H-1-benzothiopyran-6-yl]-1λ^6,2,5-thiadiazolidine-1,1,3-trione] | < 10 | 10 to 100 | – | EC50 [3, 5]: 1210 nM
4 | CC(C)(C)OC(=O)N1CCC(CNC2COc3cc(O)c(N4CC(=O)NS4(=O)=O)c(F)c3C2)CC1 (stereo not shown) [Compound C-13, reference compound] | – | – | > 50000 | –
5 | O=C1CN(c2c(O)cc3c(c2F)C[C@H](NCC2(F)CC2)CS3)S(=O)(=O)N1 [Compound 125, 5-[(3S)-5-fluoro-3-{[(1-fluorocyclopropyl)methyl]amino}-7-hydroxy-3,4-dihydro-2H-1-benzothiopyran-6-yl]-1λ^6,2,5-thiadiazolidine-1,1,3-trione] | 10 to 100 | 10 to 100 | – | EC50 [3, 5]: > 50000 nM
6 | O=C1CN(c2c(O)cc3c(c2F)C[C@H](NCCC2(CO)CCCC2)CS3)S(=O)(=O)N1 [Compound 105, 5-[(3S)-5-fluoro-7-hydroxy-3-({2-[1-(hydroxymethyl)cyclopentyl]ethyl}amino)-3,4-dihydro-2H-1-benzothiopyran-6-yl]-1λ^6,2,5-thiadiazolidine-1,1,3-trione] | < 10 | 10 to 100 | – | EC50 [3, 5]: 4810 nM
7 | CC(C)(C)OC(=O)N[C@@H]1CSc2cc(O)c(N3CC(=O)NS3(=O)=O)c(F)c2C1 [Compound 101, tert-butyl [(3S)-5-fluoro-7-hydroxy-6-(1,1,4-trioxo-1λ^6,2,5-thiadiazolidin-2-yl)-3,4-dihydro-2H-1-benzothiopyran-3-yl]carbamate] | – | > 100 | – | –
8 | O=C1CN(c2c(O)cc3c(c2F)C[C@H](NCCCOCC(F)F)CS3)S(=O)(=O)N1 [Compound 137, 5-[(3S)-3-{[3-(2,2-difluoroethoxy)propyl]amino}-5-fluoro-7-hydroxy-3,4-dihydro-2H-1-benzothiopyran-6-yl]-1λ^6,2,5-thiadiazolidine-1,1,3-trione] | 10 to 100 | 10 to 100 | > 50000 | Thiochromane x-fold>potency biochemical ([1]; Table 3): 1.1; IC50 [1, 7]: 21 nM; EC50 [3, 5]: > 50000 nM; Thiochromane x-fold>potency cellular ([3]; Table 3, pSTAT1 EC50 of chromane comparator over thiochromane): ~1.0
9 | CC(C)CCN[C@@H]1COc2cc(O)c(N3CC(=O)NS3(=O)=O)c(F)c2C1 [Compound C-3, reference compound] | – | – | 6960 | IC50 [1, 7]: 15 nM
10 | O=C1CN(c2c(O)cc3c(c2F)CC(NCC2C4CCCC42)CO3)S(=O)(=O)N1 (stereo not shown) [Compound C-10, reference compound] | – | – | > 50000 | –
11 | O=C1CN(c2c(O)cc3c(c2F)CC(NCCC2CCOC2)CO3)S(=O)(=O)N1 (stereo not shown) [Compound C-5, reference compound] | – | – | 22600 | –
12 | O=C1CN(c2c(O)cc3c(c2F)CC(NCCC2CCOCC2)CO3)S(=O)(=O)N1 (stereo not shown) [Compound C-4, reference compound] | – | – | 32200 | –
13 | N[C@@H]1COc2cc(O)c(N3CC(=O)NS3(=O)=O)c(F)c2C1 [Compound C-2, reference compound] | – | – | 5750 | IC50 [1, 7]: 52 nM
14 | O=C1CN(c2c(O)cc3c(c2F)CC(NCC2CCC(C(F)(F)F)CC2)CO3)S(=O)(=O)N1 (stereo not shown) [Compound C-11, reference compound] | – | – | > 50000 | –
15 | CC1=C(CCNC2COc3cc(O)c(N4CC(=O)NS4(=O)=O)c(F)c3C2)C(C)(C)CCC1 (stereo not shown) [Compound C-12, reference compound] | – | – | > 50000 | –
16 | N[C@@H]1CSc2cc(O)c(N3CC(=O)NS3(=O)=O)c(F)c2C1 [Compound 102, 5-[(3S)-3-amino-5-fluoro-7-hydroxy-3,4-dihydro-2H-1-benzothiopyran-6-yl]-1λ^6,2,5-thiadiazolidine-1,1,3-trione] | 10 to 100 | > 100 | – | Thiochromane x-fold>potency biochemical ([1]; Table 3): 1.7; IC50 [1, 7]: 31 nM
17 | O=C1CN(c2c(O)cc3c(c2F)CC(NCC2CC(c4ccccc4)C2)CO3)S(=O)(=O)N1 (stereo not shown) [Compound C-7, reference compound] | – | – | > 50000 | –
18 | O=C1CN(c2c(O)cc3c(c2F)CC(NCC2(CF)CC2)CO3)S(=O)(=O)N1 (stereo not shown) [Compound C-6, reference compound] | – | – | > 50000 | –
